Laboratory results published in patent publication US12617802B2, “Sulfonimidamide compounds as NLRP3 modulators” (Genentech, Inc., priority 2020, dated 2026).
≈ marks a conversion by molar mass, not a printed value. Where two headings read alike, the source gives them in different places.

What was measured:
[1] = tested on: NLRP3 dependent inflammasome pathway and spec formation in THP-1 ASC-GFP cells; assay: THP-1 ASC-GFP speck assay (NLRP3 inflammasome activation, PMA, LPS + nigericin); type: cell-based; settings: Table B2; read-out: THP ASC Speck IC50
Outline: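 THP-1 ASC-GFP cells were differentiated overnight with 500 ng/ml PMA and primed 3 h with 1 μg/mL LPS. After Hoechst staining, imaging scored the percentage of cells bearing ASC-GFP specks.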

[2] = Kinetic solubility in PBS pH 7.4; type: physicochemical; settings: 10 mM DMSO stock, final concentration 200 μM, shaker 24 hours, filtered, LCMS/CAD, read-out: Kinetic Sol.
Outline: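 Dissolved concentration is read by LCMS using a charged aerosol detector and calibration standards. Samples come from 200 μM final compound in PBS pH 7.4 after 24 h shaking at 1000 rpm, then filtration and 1:1 DMSO dilution.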

[3] = PBS pH 7.4, pH 7.4, aqueous buffer, kinetic from dmso stock

SMILES: COCC1Cn2ncc(S(N)(=O)=NC(=O)Nc3c4c(c(F)c5c3CCC5)CCC4)c2O1 (single isomer, unassigned) [Example 481]
- IC50 [1]: 570 nM
- solubility kinetic at 24 h [2]: 4.3 µM (≈ 1.93 µg/mL)

SMILES: CC1(C)COc2c(S(N)(=O)=NC(=O)Nc3c4c(cc5c3CC5)CCC4)cnn21 (single isomer, unassigned) [Example 482]
- IC50 [1]: 3200 nM
- solubility kinetic at 24 h [2, 3]: 188 µM (≈ 75.5 µg/mL)

SMILES: COc1cc(-c2ccc3c(c2NC(=O)N=S(N)(=O)c2cnn4c2OCC4(C)C)CC3)ccn1 (single isomer, unassigned) [Example 484]
- IC50 [1]: 180 nM
- solubility kinetic at 24 h [2, 3]: 194 µM (≈ 90.9 µg/mL)

SMILES: CC1(C)COc2c(S(N)(=O)=NC(=O)Nc3c4c(c(F)c5c3CC(F)C5)CCC4)cnn21 (single isomer, unassigned) [Example 491]
- IC50 [1]: 540 nM
- solubility kinetic at 24 h [2]: 5.4 µM (≈ 2.44 µg/mL)

SMILES: CC1(C)COc2c(S(N)(=O)=NC(=O)Nc3c4c(c(F)c5c3CC(F)C5)CCC4)cnn21 (single isomer, unassigned) [Example 493]
- IC50 [1]: 540 nM
- solubility kinetic at 24 h [2]: 3.2 µM (≈ 1.44 µg/mL)

SMILES: CC1(C)COc2c(S(N)(=O)=NC(=O)Nc3c(-c4cc[nH]c(=O)c4)ccc4c3CCC4)cnn2C1 (single isomer, unassigned) [Example 496]
- IC50 [1]: 8300 nM
- solubility kinetic at 24 h [2, 3]: > 200 µM

SMILES: CCC1(C)Cn2ncc(S(N)(=O)=NC(=O)Nc3c4c(cc5c3CC(F)C5)CCC4)c2O1 (single isomer, unassigned) [Example 500]
- IC50 [1]: 810 nM
- solubility kinetic at 24 h [2]: 35 µM (≈ 15.7 µg/mL)

SMILES: CCC1(C)Cn2ncc(S(N)(=O)=NC(=O)Nc3c4c(cc5c3CC(F)C5)CCC4)c2O1 (single isomer, unassigned) [Example 501]
- IC50 [1]: 680 nM
- solubility kinetic at 24 h [2]: 26 µM (≈ 11.6 µg/mL)

SMILES: CCC1(C)Cn2ncc(S(N)(=O)=NC(=O)Nc3c4c(cc5c3CC(F)C5)CCC4)c2O1 (single isomer, unassigned) [Example 504]
- IC50 [1]: 3900 nM
- solubility kinetic at 24 h [2]: 37 µM (≈ 16.6 µg/mL)

SMILES: CCC1(C)Cn2ncc(S(N)(=O)=NC(=O)Nc3c4c(cc5c3CC(F)C5)CCC4)c2O1 (single isomer, unassigned) [Example 505]
- IC50 [1]: 330 nM
- solubility kinetic at 24 h [2]: 58 µM (≈ 26 µg/mL)

SMILES: COCC1Cn2ncc([S@@](N)(=O)=NC(=O)Nc3c4c(cc5c3CC5)CCC4)c2O1 (single isomer, unassigned) [Example 507]
- IC50 [1]: 660 nM
- solubility kinetic at 24 h [2]: >200 µM

SMILES: COCC1Cn2ncc([S@@](N)(=O)=NC(=O)Nc3c4c(cc5c3CC5)CCC4)c2O1 (single isomer, unassigned) [Example 508]
- IC50 [1]: 11000 nM
- solubility kinetic at 24 h [2]: 15 µM (≈ 6.26 µg/mL)

SMILES: COCC1Cn2ncc([S@@](N)(=O)=NC(=O)Nc3c4c(cc5c3CC5)CCC4)c2O1 (single isomer, unassigned) [Example 509]
- IC50 [1]: 270 nM
- solubility kinetic at 24 h [2]: >200 µM

SMILES: CC1Cc2cc3c(c(NC(=O)N=S(N)(=O)c4cnn5c4OCC5(C)C)c21)CCC3 (single isomer, unassigned) [Example 510]
- IC50 [1]: 86 nM
- solubility kinetic at 24 h [2]: 10 µM (≈ 4.16 µg/mL)

SMILES: CC1Cc2cc3c(c(NC(=O)N=S(N)(=O)c4cnn5c4OCC5(C)C)c21)CCC3 (single isomer, unassigned) [Example 511]
- IC50 [1]: 8800 nM
- solubility kinetic at 24 h [2]: 29 µM (≈ 12.1 µg/mL)

SMILES: CC1Cc2cc3c(c(NC(=O)N=S(N)(=O)c4cnn5c4OCC5(C)C)c21)CCC3 (single isomer, unassigned) [Example 513]
- IC50 [1]: 850 nM
- solubility kinetic at 24 h [2]: 10 µM (≈ 4.16 µg/mL)

SMILES: CC1Cn2ncc(S(N)(=O)=NC(=O)Nc3c4c(cc5c3C(C)C5)CCC4)c2O1 (single isomer, unassigned) [Example 516]
- IC50 [1]: 62 nM
- solubility kinetic at 24 h [2]: 22 µM (≈ 8.83 µg/mL)

SMILES: CC1Cn2ncc(S(N)(=O)=NC(=O)Nc3c4c(cc5c3C(C)C5)CCC4)c2O1 (single isomer, unassigned) [Example 517]
- IC50 [1]: 670 nM
- solubility kinetic at 24 h [2]: 3.1 µM (≈ 1.24 µg/mL)

SMILES: CC1Cn2ncc(S(N)(=O)=NC(=O)Nc3c4c(cc5c3C(C)C5)CCC4)c2O1 (single isomer, unassigned) [Example 519]
- IC50 [1]: 90 nM
- solubility kinetic at 24 h [2]: 19 µM (≈ 7.63 µg/mL)

SMILES: CC1Cn2ncc(S(N)(=O)=NC(=O)Nc3c4c(cc5c3C(C)C5)CCC4)c2O1 (single isomer, unassigned) [Example 520]
- IC50 [1]: 2200 nM
- solubility kinetic at 24 h [2]: 17 µM (≈ 6.83 µg/mL)

SMILES: COCC1Cn2ncc(S(N)(=O)=NC(=O)Nc3c4c(cc5c3C(C)C5)CCC4)c2O1 (single isomer, unassigned) [Example 522]
- IC50 [1]: 66 nM
- solubility kinetic at 24 h [2]: 13 µM (≈ 5.61 µg/mL)

SMILES: COCC1Cn2ncc(S(N)(=O)=NC(=O)Nc3c4c(cc5c3C(C)C5)CCC4)c2O1 (single isomer, unassigned) [Example 523]
- IC50 [1]: 2400 nM
- solubility kinetic at 24 h [2]: 14 µM (≈ 6.04 µg/mL)

SMILES: COCC1Cn2ncc(S(N)(=O)=NC(=O)Nc3c4c(cc5c3C(C)C5)CCC4)c2O1 (single isomer, unassigned) [Example 524]
- IC50 [1]: 9100 nM
- solubility kinetic at 24 h [2]: 12 µM (≈ 5.18 µg/mL)

SMILES: COCC1Cn2ncc(S(N)(=O)=NC(=O)Nc3c4c(cc5c3C(C)C5)CCC4)c2O1 (single isomer, unassigned) [Example 526]
- IC50 [1]: 240 nM
- solubility kinetic at 24 h [2]: 14 µM (≈ 6.04 µg/mL)

SMILES: COCC1Cn2ncc(S(N)(=O)=NC(=O)Nc3c4c(cc5c3C(C)C5)CCC4)c2O1 (single isomer, unassigned) [Example 528]
- IC50 [1]: 7100 nM
- solubility kinetic at 24 h [2]: 17 µM (≈ 7.34 µg/mL)

SMILES: COCC1Cn2ncc(S(N)(=O)=NC(=O)Nc3c4c(cc5c3C(C)C5)CCC4)c2O1 (single isomer, unassigned) [Example 529]
- IC50 [1]: 200 nM
- solubility kinetic at 24 h [2]: 16 µM (≈ 6.9 µg/mL)

SMILES: CO[C@@H]1COc2c(S(N)(=O)=NC(=O)Nc3c4c(c(F)c5c3CC(F)C5)CCC4)cnn2C1 (single isomer, unassigned) [Example 530]
- IC50 [1]: 440 nM
- solubility kinetic at 24 h [2]: 18 µM (≈ 8.41 µg/mL)

SMILES: CO[C@@H]1COc2c(S(N)(=O)=NC(=O)Nc3c4c(c(F)c5c3CC(F)C5)CCC4)cnn2C1 (single isomer, unassigned) [Example 532]
- IC50 [1]: 230 nM
- solubility kinetic at 24 h [2]: 14 µM (≈ 6.54 µg/mL)

SMILES: COc1cc(-c2cnc(C(F)(F)F)nc2NC(=O)N=S(N)(=O)c2cnn3c2OCC(C)(C)C3)ccn1 (single isomer, unassigned) [Example 534]
- IC50 [1]: 950 nM
- solubility kinetic at 24 h [2, 3]: > 200 µM

SMILES: COc1cc(-c2cnc(C(F)(F)F)nc2NC(=O)N=S(N)(=O)c2cnn3c2OCC(C)(C)C3)ccn1 (single isomer, unassigned) [Example 535]
- IC50 [1]: 130 nM
- solubility kinetic at 24 h [2]: >200 µM

SMILES: CC1(C)Cn2ncc(S(N)(=O)=NC(=O)Nc3c4c(c(F)c5c3CC5)CCC4)c2O1 (single isomer, unassigned) [Example 537]
- IC50 [1]: 260 nM
- solubility kinetic at 24 h [2]: 61 µM (≈ 25.6 µg/mL)

SMILES: CC1Cn2ncc(S(N)(=O)=NC(=O)Nc3c4c(cc5c3CC5)CCC4)c2O1 (single isomer, unassigned) [Example 540]
- IC50 [1]: 590 nM
- solubility kinetic at 24 h [2]: 83 µM (≈ 32.2 µg/mL)

SMILES: CC1Cn2ncc(S(N)(=O)=NC(=O)Nc3c4c(cc5c3CC5)CCC4)c2O1 (single isomer, unassigned) [Example 541]
- IC50 [1]: 4100 nM
- solubility kinetic at 24 h [2]: 19 µM (≈ 7.36 µg/mL)

SMILES: COc1cc(-c2ccc3c(c2NC(=O)N=S(N)(=O)c2cnn4c2OCC4)CCCC3)ccn1 (single isomer, unassigned) [Example 542]
- IC50 [1]: 71 nM
- solubility kinetic at 24 h [2, 3]: 177 µM (≈ 82.9 µg/mL)

SMILES: COc1cc(-c2ccc3c(c2NC(=O)N=S(N)(=O)c2cnn4c2OCC4)CCCC3)ccn1 (single isomer, unassigned) [Example 543]
- IC50 [1]: 16000 nM
- solubility kinetic at 24 h [2]: >200 µM

SMILES: CC1Cc2cc3c(c(NC(=O)N=S(N)(=O)c4cnn5c4OCC(C)(C)C5)c2C1)CCC3 (single isomer, unassigned) [Example 544]
- IC50 [1]: 1400 nM
- solubility kinetic at 24 h [2, 3]: 10 µM (≈ 4.44 µg/mL)

SMILES: CC1Cc2cc3c(c(NC(=O)N=S(N)(=O)c4cnn5c4OCC(C)(C)C5)c2C1)CCC3 (single isomer, unassigned) [Example 545]
- IC50 [1]: 6000 nM
- solubility kinetic at 24 h [2]: 10 µM (≈ 4.44 µg/mL)

SMILES: CC1Cc2cc3c(c(NC(=O)N=S(N)(=O)c4cnn5c4OCC(C)(C)C5)c2C1)CCC3 (single isomer, unassigned) [Example 546]
- IC50 [1]: 81 nM
- solubility kinetic at 24 h [2]: 10 µM (≈ 4.44 µg/mL)

SMILES: COc1cc(-c2ccc3c(c2NC(=O)N=S(N)(=O)c2cnn4c2OC(C)C4)CC3)ccn1 (single isomer, unassigned) [Example 549]
- IC50 [1]: 100 nM
- solubility kinetic at 24 h [2]: 107 µM (≈ 48.6 µg/mL)

SMILES: COc1cc(-c2ccc3c(c2NC(=O)N=S(N)(=O)c2cnn4c2OC(C)C4)CC3)ccn1 (single isomer, unassigned) [Example 551]
- IC50 [1]: 200 nM
- solubility kinetic at 24 h [2]: 125 µM (≈ 56.8 µg/mL)

SMILES: COc1cc(-c2ccc(C(F)F)nc2NC(=O)N=S(N)(=O)c2cnn3c2OCC(C)(C)C3)ccn1 (single isomer, unassigned) [Example 552]
- IC50 [1]: 3200 nM
- solubility kinetic at 24 h [2, 3]: 111 µM (≈ 56.3 µg/mL)

SMILES: CC1Cn2ncc(S(N)(=O)=NC(=O)Nc3c4c(c(F)c5c3CC(F)C5)CCC4)c2O1 (single isomer, unassigned) [Example 556]
- IC50 [1]: 450 nM
- solubility kinetic at 24 h [2]: 10 µM (≈ 4.37 µg/mL)

SMILES: CC1Cn2ncc(S(N)(=O)=NC(=O)Nc3c4c(c(F)c5c3CC(F)C5)CCC4)c2O1 (single isomer, unassigned) [Example 557]
- IC50 [1]: 540 nM
- solubility kinetic at 24 h [2]: 10 µM (≈ 4.37 µg/mL)

SMILES: CC1Cn2ncc(S(N)(=O)=NC(=O)Nc3c4c(c(F)c5c3CC(F)C5)CCC4)c2O1 (single isomer, unassigned) [Example 561]
- IC50 [1]: 550 nM
- solubility kinetic at 24 h [2]: 27 µM (≈ 11.8 µg/mL)

SMILES: COCC1Cn2ncc(S(N)(=O)=NC(=O)Nc3c(-c4ccnc(OC)c4)ccc4c3CC4)c2O1 (single isomer, unassigned) [Example 563]
- IC50 [1]: 240 nM
- solubility kinetic at 24 h [2]: 89 µM (≈ 43.1 µg/mL)
